Tested on: Subjects With Active Crohn's Disease
Assay: Total cholesterol determination, Study 5 (Crohn's disease, monotherapy of Compound 1)
Format: in vivo, human
Settings: for [Total cholesterol] Mean CFB - 10 weeks results / [Total cholesterol] Median CFB - 10 weeks results / [Total cholesterol] Median CFB / [total cholesterol] Mean CFB: 200 mg q.d.; for [Total cholesterol] Median CFB / [total cholesterol] Mean CFB: Study 5 10 weeks results
Description: Double-Blind, Randomized, Placebo-Controlled, Multi-Centre Study to Investigate the Efficacy and Safety of Compound 1 in Subjects With Active Crohn's Disease With Evidence of Mucosal Ulceration.
This is a double-blind, randomized, placebo-controlled, multi-centre Phase 2 study to investigate the efficacy and safety of Compound 1 administered once daily for the treatment of active CD with evidence of mucosal ulceration. The pharmacokinetics (including a PK substudy) and pharmacodynamics of Compound 1 and metabolite in CD will also be characterised.
A total of 180 eligible subjects will be randomized to receive Compound 1 or placebo in addition to their stable background treatment (eg, corticosteroids, aminosalicylates, or CD-related antibiotics). The study will consist of 2 parts, with total treatment duration of 20 weeks. Randomization in Part 1 will be stratified according the subject's previous anti-TNF exposure/response, CRP level at Screening, and oral corticosteroid use at visit Day −1.
After the first 10 weeks of treatment in Part 1, patients will be re-randomized for Part 2 as shown in the diagram below and will be stratified according to the subject's clinical response, previous anti-TNF exposure/response, and oral corticosteroid use at visit Day −1.
The following assays were conducted at Eurofins Global Central Laboratory, Bergschot 71, 4817 PA Breda, The Netherlands, and at Quest Diagnostics, Clinical Trials, Quest House, 125-135 Staines Road, Hounslow, Middlesex, TW3 3JB, United Kingdom. The assays for Study 5 were performed at BARC Europe, 3B, Industrie Park, Zwijnaarde, B-9052 Ghent, Belgium.
This method is based on the determination of Δ^4 cholestenone after enzymatic cleavage of the cholesterol ester by cholesterol esterase, conversion of cholesterol by cholesterol oxidase, and subsequent measurement by the Trinder reaction of the hydrogen peroxide formed (Allain et al., 1974).
Cholesterol esters are cleaved by the action of cholesterol esterase to yield free cholesterol and fatty acids. Cholesterol oxidase then catalyzes the oxidation of cholesterol to cholest-4-en-3-one and hydrogen peroxide. In the presence of peroxidase, the hydrogen peroxide formed effects the oxidative coupling of phenol and 4-aminophenazone to form a red quinone-imine dye. The color intensity of the dye formed is directly proportional to the cholesterol concentration. It is determined by measuring the increase in absorbance.
Human serum and plasma samples cholesterol determination was done on a Roche/Hitachi Cobas c 701/702 system which automatically calculate the analyte concentration of each sample.

[1] = 200 mg q.d. continued to week 20, week 2
[2] = 200 mg q.d. continued to week 20, week 4
[3] = 200 mg q.d. continued to week 20, week 6
[4] = 200 mg q.d. continued to week 20, week 10
[5] = 200 mg q.d. continued to week 20, week 12
[6] = 200 mg q.d. continued to week 20, week 16
[7] = 200 mg q.d. continued to week 20, week 20
[8] = 200 mg q.d. week 0 to 10, to 100 mg q.d. week 10 to 20, week 2
[9] = 200 mg q.d. week 0 to 10, to 100 mg q.d. week 10 to 20, week 4
[10] = 200 mg q.d. week 0 to 10, to 100 mg q.d. week 10 to 20, week 6
[11] = 200 mg q.d. week 0 to 10, to 100 mg q.d. week 10 to 20, week 10
[12] = 200 mg q.d. week 0 to 10, to 100 mg q.d. week 10 to 20, week 12
[13] = 200 mg q.d. week 0 to 10, to 100 mg q.d. week 10 to 20, week 16
[14] = 200 mg q.d. week 0 to 10, to 100 mg q.d. week 10 to 20, week 20
[15] = 200 mg q.d. week 0 to 10, to placebo week 10 to 20, week 2
[16] = 200 mg q.d. week 0 to 10, to placebo week 10 to 20, week 4
[17] = 200 mg q.d. week 0 to 10, to placebo week 10 to 20, week 6
[18] = 200 mg q.d. week 0 to 10, to placebo week 10 to 20, week 10
[19] = 200 mg q.d. week 0 to 10, to placebo week 10 to 20, week 12
[20] = 200 mg q.d. week 0 to 10, to placebo week 10 to 20, week 16
[21] = 200 mg q.d. week 0 to 10, to placebo week 10 to 20, week 20

O=C(Nc1nc2cccc(-c3ccc(CN4CCS(=O)(=O)CC4)cc3)n2n1)C1CC1 [Compound 1, cyclopropanecarboxylic acid {5-[4-(1,1-dioxo-thiomorpholin-4-ylmethyl)-phenyl]-[1,2,4]triazolo[1,5-a]pyridin-2yl}-amide]
[Total cholesterol] Mean CFB - 20 weeks results [1]: 7.30% | [Total cholesterol] Median CFB - 20 weeks results [1]: 5.15% | [Total cholesterol] Mean CFB - 20 weeks results [2]: 5.06% | [Total cholesterol] Median CFB - 20 weeks results [2]: 2.70% | [Total cholesterol] Mean CFB - 20 weeks results [3]: 6.70% | [Total cholesterol] Median CFB - 20 weeks results [3]: 7.88% | [Total cholesterol] Mean CFB - 20 weeks results [4]: 11.58% | [Total cholesterol] Median CFB - 20 weeks results [4]: 9.98% | [Total cholesterol] Mean CFB - 20 weeks results [5]: 11.06% | [Total cholesterol] Median CFB - 20 weeks results [5]: 6.99% | [Total cholesterol] Mean CFB - 20 weeks results [6]: 11.13% | [Total cholesterol] Median CFB - 20 weeks results [6]: 6.91% | [Total cholesterol] Mean CFB - 20 weeks results [7]: 11.03% | [Total cholesterol] Median CFB - 20 weeks results [7]: 5.31% | [Total cholesterol] Mean CFB - 20 weeks results [8]: 4.54% | [Total cholesterol] Median CFB - 20 weeks results [8]: 4.08% | [Total cholesterol] Mean CFB - 20 weeks results [9]: 6.72% | [Total cholesterol] Median CFB - 20 weeks results [9]: 1.92% | [Total cholesterol] Mean CFB - 20 weeks results [10]: 6.47% | [Total cholesterol] Median CFB - 20 weeks results [10]: 5.89% | [Total cholesterol] Mean CFB - 20 weeks results [11]: 9.72% | [Total cholesterol] Median CFB - 20 weeks results [11]: 7.10% | [Total cholesterol] Mean CFB - 20 weeks results [12]: 5.38% | [Total cholesterol] Median CFB - 20 weeks results [12]: 7.04% | [Total cholesterol] Mean CFB - 20 weeks results [13]: 2.89% | [Total cholesterol] Median CFB - 20 weeks results [13]: 2.83% | [Total cholesterol] Mean CFB - 20 weeks results [14]: 3.80% | [Total cholesterol] Median CFB - 20 weeks results [14]: 2.28% | [Total cholesterol] Mean CFB - 20 weeks results [15]: 3.98% | [Total cholesterol] Median CFB - 20 weeks results [15]: 3.93% | [Total cholesterol] Mean CFB - 20 weeks results [16]: 6.98% | [Total cholesterol] Median CFB - 20 weeks results [16]: 6.38% | [Total cholesterol] Mean CFB - 20 weeks results [17]: 5.72% | [Total cholesterol] Median CFB - 20 weeks results [17]: 7.32% | [Total cholesterol] Mean CFB - 20 weeks results [18]: 5.28% | [Total cholesterol] Median CFB - 20 weeks results [18]: 3.89% | [Total cholesterol] Mean CFB - 20 weeks results [19]: 1.82% | [Total cholesterol] Median CFB - 20 weeks results [19]: 3.93% | [Total cholesterol] Mean CFB - 20 weeks results [20]: 5.24% | [Total cholesterol] Median CFB - 20 weeks results [20]: 1.36% | [Total cholesterol] Mean CFB - 20 weeks results [21]: 3.92% | [Total cholesterol] Median CFB - 20 weeks results [21]: 2.50% | [Total cholesterol] Mean CFB - 10 weeks results (week 2): 6.066% | [Total cholesterol] Median CFB - 10 weeks results (week 2): 4.148% | [Total cholesterol] Mean CFB - 10 weeks results (week 4): 5.803% | [Total cholesterol] Median CFB - 10 weeks results (week 4): 3.803% | [Total cholesterol] Mean CFB - 10 weeks results (week 6): 6.458% | [Total cholesterol] Median CFB - 10 weeks results (week 6): 7.187% | [Total cholesterol] Mean CFB - 10 weeks results (week 10): 9.976% | [Total cholesterol] Median CFB - 10 weeks results (week 10): 7.456% | [Total cholesterol] Median CFB (week 2): 0.200 mmol/L | [total cholesterol] Mean CFB (week 2): 0.231 mmol/L | [Total cholesterol] Median CFB (week 4): 0.180 mmol/L | [total cholesterol] Mean CFB (week 4): 0.194 mmol/L | [Total cholesterol] Median CFB (week 6): 0.300 mmol/L | [total cholesterol] Mean CFB (week 6): 0.215 mmol/L

Source: US10376520B2, “Methods for the treatment of cardiovascular disorders” (Galapagos NV, priority 2015, dated 2019)
